# Laboratory results published in ChEMBL document CHEMBL5357023, “Synthesis and Evaluation of Benzylamine Inhibitors of Neuropathogenic Naegleria fowleri "Brain-Eating" Amoeba” (ACS Med Chem Lett, 2024).
# Legend:
# Naegleria fowleri [1] = assay: Anti-ameobic activity against Naegleria fowleri NF69 ATCC 30215 incubated for 48 hrs; format: functional, organism-based; details: NF69 ATCC 30215, 48 h
# SH-SY5Y [2] = assay: Cytotoxicity against human SH-SY5Y cells assessed as reduction in cell viability at 20 uM incubated for 72 hrs by celltiter glow assay; format: functional
# SH-SY5Y [3] = assay: Cytotoxicity against human SH-SY5Y cells assessed as reduction in cell viability at 1 uM incubated for 72 hrs by celltiter glow assay; format: functional
# Naegleria fowleri [4] = assay: Anti-ameobic activity against Naegleria fowleri NF69 ATCC 30215 assessed as growth inhibition incubated for 48 hrs relative to control; format: functional, organism-based; details: for growth inhibition (GI): time 48 hrs
# [5] = Plasma protein binding in CD-1 mouse measured for 4 hrs by LC-MS/MS analysis; format: ADME, cell-free; details: read-out: PPB (converted)
# [6] = Kinetic solubility of compound in phosphate buffer at pH 7.4 incubated for 24 hrs by HPLC analysis; format: physicochemical; details: read-out: Kinetic_solubility
# [7] = Microsomal stability in CD-1 mouse liver microsome assessed as half life preincubated for 60 mins followed by NADPH addition and measured after 60 mins by HPLC analysis; format: ADME; details: liver microsomes, time 120 min
# [8] = Lipophilicity, log D of the compound in octanol/phosphate buffer at pH 7.4 incubated for 2 mins by LC-MS analysis; format: physicochemical
# [9] = Stability in CD-1 mouse plasma assessed as parent compound remaining incubated for 20 mins by LC-MS analysis; format: ADME, cell-free; details: read-out: Stability
# SH-SY5Y [10] = assay: Cytotoxicity against human SH-SY5Y cells assessed as reduction in cell viability incubated for 72 hrs by celltiter glow assay; format: functional
# [11] = Permeability of compound incubated for 18 hrs by PAMPA assay; format: ADME; details: read-out: permeability
Structure (SMILES),EC50 (Naegleria fowleri [1]),Cell viability remaining (SH-SY5Y [2]),Activity (SH-SY5Y [3]),growth inhibition (GI) (Naegleria fowleri [4]),other results
CC(C)(C)c1ccc(CNc2cc(Cl)ncc2C(=O)O)cc1,> 10 µM,,,,
CC(C)(C)c1ccc(CC(=O)Nc2cc(Cl)cnc2C(=O)O)cc1,> 10 µM,19%,76%,9.9%,
CC(C)(C)c1ccc(CNc2cc(Br)cnc2C(=O)O)cc1,7.2 µM,85%,99%,84.4%,
CC(C)(C)c1ccc(CNc2cccnc2C(=O)O)cc1,3 µM,89%,100%,99.2%,
CC(C)(C)c1ccc(Nc2cc(Cl)cnc2C(=O)O)cc1,> 10 µM,57%,98%,4.5%,
CC(C)(C)c1ccc(CNc2cc(Cl)cnc2C(=O)O)cc1,6 µM,53%,85%,98.8%,fraction unbound at 4 h [5]: 0.009; solubility kinetic at 24 h [6]: 84 µM; half-life [7]: 38 min; logD at 2 min [8]: 2.3; remaining at 20 min [9]: 93%; CC50 (SH-SY5Y [10]): > 20 µM; Papp at 18 h [11]: 8.5 ×10⁻⁶ cm/s
CC(C)(C)c1ccc(S(=O)(=O)Nc2cc(Cl)cnc2C(=O)O)cc1,> 10 µM,100%,100%,16.5%,
O=C(O)c1ncc(Cl)cc1NCCc1ccc(C(F)(F)F)cc1,> 10 µM,57%,59%,44.8%,
CC(C)(C)c1ccc(CNc2cc(Cl)c(Br)nc2C(=O)O)cc1,> 10 µM,100%,100%,17.6%,
COc1ccc(CNc2cc(Cl)cnc2C(=O)O)cc1,> 10 µM,95%,98%,6.6%,
CC(C)(C)c1ncc(CNc2cc(Cl)cnc2C(=O)O)s1,> 10 µM,67%,95%,0%,
COc1cnc(C(=O)O)c(NCCc2ccc(C(C)(C)C)cc2)c1,1.1 µM,57%,87%,100.4%,
CC(C)(C)c1ccc(CNc2scnc2C(=O)O)cc1,> 10 µM,,,,
CCCCCCCCCCCCCCCCOP(=O)([O-])OCC[N+](C)(C)C [MILTEFOSINE],35.7 µM,,,,
Cc1ccc(CNc2cc(Cl)cnc2C(=O)O)cc1,> 10 µM,94%,100%,0%,
CC(C)(C)c1ccc(CNc2cc(F)cnc2C(=O)O)cc1,5 µM,73%,91%,99.5%,
CC(C)(C)c1ccc(CNc2cc(-c3ccccc3)cnc2C(=O)O)cc1,5 µM,81%,100%,99.3%,
CC(C)(C)c1ccc(CCc2cc(Cl)cnc2C(=O)O)cc1,> 10 µM,85%,100%,0%,
CC(C)(C)c1ccc(CNc2cc(Cl)c(-c3ccccc3)nc2C(=O)O)cc1,> 10 µM,82%,100%,20.4%,

Structure (SMILES),EC50 (Naegleria fowleri [1]),Cell viability remaining (SH-SY5Y [2]),Activity (SH-SY5Y [3]),growth inhibition (GI) (Naegleria fowleri [4]),other results
CC(C)(C)c1ccc(CNc2cc(Cl)cnc2C(=O)O)s1,> 10 µM,90%,95%,0%,
COc1ccc(CCNc2cc(Cl)cnc2C(=O)O)cc1,> 10 µM,71%,95%,12.9%,
CC(C)(C)c1ccc(CCNc2cc(Cl)cnc2C(=O)O)cc1,3.3 µM,100%,95%,99.8%,
O=C(O)c1ncc(Cl)cc1NCc1ccc(C(F)(F)F)cc1,> 10 µM,66%,78%,29.5%,
NC(=O)N1c2ccccc2C=Cc2ccccc21 [CARBAMAZEPINE],,,,,Papp at 18 h [11]: 6.63 ×10⁻⁶ cm/s
Cc1cnc(C(=O)O)c(NCc2ccc(C(C)(C)C)cc2)c1,1.4 µM,98%,96%,100.4%,solubility kinetic at 24 h [6]: 208 µM; half-life [7]: 49 min; logD at 2 min [8]: 2.4; CC50 (SH-SY5Y [10]): > 20 µM
CC(C)(C)c1ccc(CNc2cncnc2C(=O)O)cc1,> 10 µM,,,,
CC(C)(C)c1ccc(CNc2cc(Cl)cnc2C(N)=O)cc1,> 10 µM,77%,100%,27.7%,
CC(Nc1cc(Cl)cnc1C(=O)O)c1ccc(C(C)(C)C)cc1 (stereo unspecified),> 10 µM,100%,98%,38.2%,
CC(C)(C)c1ccc(CNc2cc(Cl)cnc2C#N)cc1,> 10 µM,57%,96%,22.2%,
CC(C)(C)NCC(O)COc1cccc2c1CC(O)C(O)C2 (stereo unspecified) [NADOLOL],,,,,Papp at 18 h [11]: < 0.01 ×10⁻⁶ cm/s
COc1cnc(C(=O)O)c(NCc2ccc(C(C)(C)C)cc2)c1,0.92 µM,100%,98%,100.3%,fraction unbound at 4 h [5]: 0.003; solubility kinetic at 24 h [6]: 199 µM; half-life [7]: 72 min; logD at 2 min [8]: 2.3; remaining at 20 min [9]: 92%; CC50 (SH-SY5Y [10]): > 20 µM; Papp at 18 h [11]: 9.69 ×10⁻⁶ cm/s
O=C(O)c1ncc(Cl)cc1NCc1ccccc1,> 10 µM,95%,95%,0%,
CC(C)(C)c1ccc(CNc2cc(N3CCOCC3)cnc2C(=O)O)cc1,11.5 µM,75%,85%,52.8%,
CC(C)(C)c1ccc(C(=O)Nc2cc(Cl)cnc2C(=O)[O-])cc1.[Na+],,61%,,,"EC50 (Naegleria fowleri [4]; Naegleria fowleri, NF69 ATCC 30215, 48 h): > 10 µM"
CC(C)(C)c1ccc(CNc2cncc(Cl)c2)cc1,> 10 µM,88%,100%,17.6%,
CC(C)(C)c1ccc(CNc2cc(Cl)c(Cl)nc2C(=O)O)cc1,> 10 µM,100%,100%,12.3%,
O=C(O)c1ncc(Cl)cc1NCc1ccc(F)cc1,> 10 µM,100%,93%,22.8%,
